Data taken from patent US8431593B2, “Heteroaryl amide derivatives” (H. Lundbeck A/S, priority 2006, dated 2013).

Target: T1, P2X7 receptor (Homo sapiens, UniProt Q99572)
T1 construct: host or cells: SH-SY5Y
T1 sequence (Q99572 1-595): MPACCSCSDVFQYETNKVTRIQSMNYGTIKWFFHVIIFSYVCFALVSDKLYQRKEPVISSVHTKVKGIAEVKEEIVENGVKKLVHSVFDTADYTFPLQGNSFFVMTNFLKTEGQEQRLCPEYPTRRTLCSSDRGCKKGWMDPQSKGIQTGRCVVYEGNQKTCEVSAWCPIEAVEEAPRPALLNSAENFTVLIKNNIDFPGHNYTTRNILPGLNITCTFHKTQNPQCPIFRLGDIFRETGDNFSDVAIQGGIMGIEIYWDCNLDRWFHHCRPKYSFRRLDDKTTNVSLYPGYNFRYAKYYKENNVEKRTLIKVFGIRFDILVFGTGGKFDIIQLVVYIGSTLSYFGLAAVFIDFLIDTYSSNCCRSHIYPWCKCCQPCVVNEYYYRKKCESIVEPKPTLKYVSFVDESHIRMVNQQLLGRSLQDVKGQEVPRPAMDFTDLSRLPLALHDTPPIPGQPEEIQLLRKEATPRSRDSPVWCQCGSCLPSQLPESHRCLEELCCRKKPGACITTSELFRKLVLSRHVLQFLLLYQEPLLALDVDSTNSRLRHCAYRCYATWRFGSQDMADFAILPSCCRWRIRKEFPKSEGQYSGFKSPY
Assay: P2X7 calcium mobilization assay, high throughput, antagonist activity (Example 4A)
Format: cell-based
Conditions: not given
How it was run: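 Cells plated 100,000/well the day before; after 1 h dye loading and one rinse, cells were preincubated 1 h at room temperature with test compound. Calcium mobilization then read on FLIPR^TETRA; maximum RFU corrected by subtracting mean no-agonist response and referenced to mean agonist-control maximum.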

SMILES | IC50 [nM]
O=C(NCC12CC3CC(CC(C3)C1)C2)c1cccc2nc(CN3CCN(CCO)CC3)cn12 [Compound 13, N-(adamantan-1-ylmethyl)-2-{[4-(2-hydroxyethyl)piperazin-1-yl]methyl}imi-dazo[1,2-a]pyridine-5-carboxamide] | < 2000
CCOC(=O)Cc1cn2c(NC(=O)CC34CC5CC(CC(C5)C3)C4)cccc2n1 [Compound 145, ethyl {5-[(adamantan-1-ylacetyl)amino]imi-dazo[1,2-a]pyridin-2-yl}acetate] | < 2000

Same assay, conditions: 50% decrease in the fluorescence response of cells exposed to 80 μM 2′(3′)-O-(4-benzoyl-benzoyl)adenosine 5′-triphosphate; Example 4A; read-out: IC50

IC50 [nM] | SMILES
< 2000 | COCCN(C)C(=O)c1cn2c(C(=O)NC[C@@H]3CC[C@H]4C[C@@H]3C4(C)C)cccc2n1 [Compound 466, 5-N-{[(1S,2R,5S)-6,6-dimethylbicyclo[3.1.1]hept-2-yl]methyl}-2-N-(2-methoxyethyl)-2-N-methylimidazo[1,2-a]pyridine-2,5-dicarboxamide]
< 2000 | CCCCN(C)C(=O)c1cn2c(C(=O)NC[C@@H]3CC[C@H]4C[C@@H]3C4(C)C)cccc2n1 [Compound 471, 2-N-butyl-5-N-{[(1S,2R,5S)-6,6-dimethylbicyclo[3.1.1]hept-2-yl]methyl}-2-N-methylimidazo[1,2-a]pyridine-2,5-dicarboxamide]
< 2000 | CCOC(=O)C(C)(C)c1cn2c(C(=O)NCC34CC5CC(CC(C5)C3)C4)cccc2n1 [Compound 450, ethyl 2-{5-[(adamantan-1-ylmethyl)carbamoyl]imidazo[1,2-a]pyridin-2-yl}-2-methylpropanoate]
< 2000 | O=C(NCC12CC3CC(CC(C3)C1)C2)c1cccc2nc(CN3CCS(=O)(=O)CC3)cn12 [Compound 537, N-(adamantan-1-ylmethyl)-2-[(1,1-dioxidothiomorpholin-4-yl)methyl]imidazo[1,2-a]pyridine-5-carboxamide]
< 2000 | CC(C)CC(CNC(=O)c1cccc2nc(CCO)cn12)c1cccnc1 (stereo not shown) [Compound 545, 2-(2-hydroxyethyl)-N-(4-methyl-2-pyridin-3-ylpentyl)imidazo[1,2-a]pyridine-5-carboxamide]
< 2000 | Cn1ccnc1SCc1cn2c(C(=O)NCC34CC5CC(CC(C5)C3)C4)cccc2n1 [Compound 530, N-(adamantan-1-ylmethyl)-2-{[(1-methyl-1H-imidazol-2-yl)thio]methyl}imidazo [1,2-a]pyridine-5-carboxamide]

Same assay, conditions: 50% decrease in the fluorescence response of cells exposed to 80 μM of 2′(3′)-O-(4-benzoyl-benzoyl)adenosine 5′-triphosphate; Example 4A; read-out: IC50

IC50 [nM] | SMILES
< 2000 | CC(COS(C)(=O)=O)c1cn2c(C(=O)NCC34CC5CC(CC(C5)C3)C4)cccc2n1 (stereo not shown) [Compound 741, 2-{5-[(adamantan-1-ylmethyl)carbamoyl]imidazo[1,2-a]pyridin-2-yl}propyl methanesulfonate]
< 2000 | O=C(Nc1nnn[nH]1)c1cn2c(C(=O)NCC34CC5CC(CC(C5)C3)C4)cccc2n1 [Compound 815, 5-N-(adamantan-1-ylmethyl)-2-N-1H-tetrazol-5-ylmidazo[1,2-a] pyridine-2,5-dicarboxamide]
< 2000 | CC(C)CC(CNC(=O)c1cccc2nc(C(=O)N3CC[C@@H](N)C3)cn12)c1cccnc1 (stereo partly shown) [Compound 746, 2-[(3-aminopyrrolidin-1-yl)carbonyl]-N-(4-methyl-2-pyridin-3-ylpentyl) imidazo[1,2-a]pyridine-5-carboxamide]
< 2000 | CN(C)C1CCN(C(=O)c2cn3c(C(=O)NCC45CC6CC(CC(C6)C4)C5)cccc3n2)CC1 [Compound 669, N-(adamantan-1-ylmethyl)-2-{[4-(dimethylamino)piperidin-1-yl]carbonyl}imidazo[1,2-a]pyridine-5-carboxamide]
< 2000 | CCOC(=O)C(Cc1cn2c(C(=O)NCC34CC5CC(CC(C5)C3)C4)cccc2n1)c1cccnc1 (stereo not shown) [Compound 759, ethyl 3-{5-[(adamantan-1-ylmethyl)carbamoyl]imidazo[1,2-a]pyridin-2-yl}-2-pyridin-3-ylpropanoate]

Same assay, conditions: 50% decrease in the fluorescence response of cells exposed to 80 μM of 2′(3′)-O-(4-benzoyl-benzoyl)adenosine 5′-triphosphate; determined as in Example 4A; read-out: IC50

IC50 [nM] | SMILES
< 2000 | O=C(NCC1(c2ccc(C(F)(F)F)cc2)CCCCC1)c1cccc2nc(Cn3nnc(CCO)n3)cn12 [Compound 920, 2-{[5-(2-hydroxyethyl)-2H-tetrazol-2-yl]methyl}-N-({1-[4-(trifluoromethyl)phenyl]cyclohexyl}methyl)imidazo [1,2-a]pyridine-5-carboxamide]
< 2000 | O=C(NCC12CC3CC(CC(C3)C1)C2)c1cccc2nc(Cn3nnnc3CCO)cn12 [Compound 855, N-(adamantan-1-ylmethyl)-2-{[5-(2-hydroxyethyl)-1H-tetrazol-1-yl]methyl}imidazo [1,2-a]pyridine-5-carboxamide]

Same assay, conditions: P2X7 calcium mobilization, Example 4A; 50% decrease in the fluorescence response of cells exposed to 80 μM of (2′(3′)-O-(4-benzoyl-benzoyl)adenosine 5′-triphosephate); read-out: IC50

IC50 [nM] | SMILES
< 2000 | O=C(NCC(c1ccc(Cl)cc1)N1CCCCC1)c1cccc2ncc(Cl)n12 (stereo not shown) [Compound 1054, 3-chloro-N-[2-(4-chlorophenyl)-2-piperidin-1-ylethyl]imidazo[1,2-a]pyridine-5-carboxamide]

Same assay, conditions: SH-SY5Y cells; 50% decrease in fluorescence response to 80 μM BzATP; read-out: IC50

IC50 [nM] | SMILES
< 2000 | O=C(NCC12CC3CC(CC(C3)C1)C2)c1cccc2nc(C(=O)N3CC(O)C3)cn12 [Compound 107, N-(adamantan-1-ylmethyl)-2-[(3-hydroxyazetidin-1-yl)carbonyl]imidazo[1,2-a]pyridine-5-carboxamide]
< 2000 | COCC1CCCCN1C(=O)Cc1cn2c(C(=O)NCC34CC5CC(CC(C5)C3)C4)cccc2n1 (stereo not shown) [Compound 177, N-(adamantan-1-ylmethyl)-2-{2-[2-(methoxymethyl)piperidin-1-yl]-2-oxoethyl}imidazo[1,2-a]pyridine-5-carboxamide]
< 2000 | COC[C@@H]1CCCN1C(=O)Cc1cn2c(C(=O)NCC34CC5CC(CC(C5)C3)C4)cccc2n1 [Compound 171, N-(adamantan-1-ylmethyl)-2-{2-[(2S)-2-(methoxymethyl)pyrrolidin-1-yl]-2-oxoethyl}imidazo[1,2-a]pyridine-5-carboxamide]
< 2000 | CN(CCC(C)(C)O)C(=O)Cc1cn2c(C(=O)NCC34CC5CC(CC(C5)C3)C4)cccc2n1 [Compound 58, N-(adamantan-1-ylmethyl)-2-{2-[(3-hydroxy-3-methyl-butyl)(methyl)amino]-2-oxoethyl}imidazo[1,2-a]pyridine-5-carboxamide]

Same assay, conditions: fluorescence response of cells exposed to 80 μM 2′(3′)-O-(4-benzoyl-benzoyl)adenosine 5′-triphosphate; Example 4A; read-out: IC50

IC50 [nM] | SMILES
< 2000 | O=C(NCC12CC3CC(CC(C3)C1)C2)c1cccc2nc(CN3CCCC3)cn12 [Compound 286, N-(adamantan-1-ylmethyl)-2-(pyrrolidin-1-ylmethyl)imidazo[1,2-a]pyridine-5-carboxamide]
< 2000 | N[C@@H]1CCCN(C(=O)Cc2cn3c(C(=O)NCC45CC6CC(CC(C6)C4)C5)cccc3n2)C1 [Compound 295, N-(adamantan-1-ylmethyl)-2-{2-[(3R)-3-aminopiperidin-1-yl]-2-oxoethyl}imidazo[1,2-a]pyridine-5-carboxamide]
< 2000 | O=C(NCC12CC3CC(CC(C3)C1)C2)c1cccc2nc(CN3CCC(F)(F)CC3)cn12 [Compound 290, N-(adamantan-1-ylmethyl)-2-[(4,4-difluoropiperidin-1-yl)methyl]imidazo[1,2-a]pyridine-5-carboxamide]
< 2000 | CC1(C)C2CC[C@@H](CNC(=O)c3cccc4nc(CN5CC[C@@H](N)C5)cn34)C1C2 (stereo partly drawn) [Compound 249, 2-{[(3R)-3-aminopyrrolidin-1-yl]methyl}-N-{[(2R)-6,6-dimethylbicyclo[3.1.1]hept-2-yl]methyl}imidazo[1,2-a]pyridine-5-carboxamide]
< 2000 | O=C(NCC12CC3CC(CC(C3)C1)C2)c1cccc2nc(CN3CCSCC3)cn12 [Compound 352, N-(adamantan-1-ylmethyl)-2-(thiomorpholin-4-ylmethyl)imidazo[1,2-a]pyridine-5-carboxamide]
